Measured values as given in the NIST ThermoML archive (doi:10.1016/j.jct.2016.03.026).

Experiment: xn = mol fraction of the nth substance listed
Conditions: Fluid (supercritical or subcritical phases), x1 = 0.97; for speed of sound: Frequency=5 MHz, Pulse-echo method; for mass density: 283.15 K, Vibrating tube method

O=C=O [carbon dioxide] + CO
speed of sound [m/s]
Conditions	273.15 K	283.14 K
14010 kPa	–	615.2
20000 kPa	–	679.8
25010 kPa	–	725
29940 kPa	–	763.8
34980 kPa	–	799.7
39940 kPa	–	831.8
39990 kPa	875.6	–
44950 kPa	903.5	–
45090 kPa	–	862.8
49960 kPa	929.9	–
50150 kPa	–	890.9
54970 kPa	954.7	–
55020 kPa	–	916.3
59830 kPa	–	940.2
60000 kPa	978.4	–
64950 kPa	1000.7	964.2
69990 kPa	1022.2	–
70150 kPa	–	987.4
74930 kPa	1042.5	–
74970 kPa	–	1007.9
79680 kPa	–	1027.1
80120 kPa	1062.9	–
90140 kPa	1100	–
90230 kPa	–	1067.9
99950 kPa	–	1102.7
99970 kPa	1134.2	–
109900 kPa	–	1136.3
110030 kPa	1167	–
120080 kPa	–	1168.8
120150 kPa	1198.3	–
139940 kPa	1255	–
140090 kPa	–	1227.7
159790 kPa	1307.2	–
159980 kPa	–	1281
180050 kPa	–	1330.2
180530 kPa	1357.4	–

Conditions	mass density [kg/m3]
5300 kPa	882.11
5325 kPa	882.5
5350 kPa	882.83
5375 kPa	883.08
5400 kPa	883.4
5425 kPa	883.67
5450 kPa	883.98
5475 kPa	884.26
5500 kPa	884.47
5525 kPa	884.8
5550 kPa	885.04
5575 kPa	885.37
5600 kPa	885.62
5625 kPa	885.95
5650 kPa	886.26
5675 kPa	886.49
5700 kPa	886.8
5725 kPa	887.09
5750 kPa	887.39
5775 kPa	887.67
5800 kPa	888.01
5825 kPa	888.24
5850 kPa	888.54
5875 kPa	888.77
5900 kPa	889.08
5925 kPa	889.31
5950 kPa	889.55
5975 kPa	889.92
6000 kPa	890.13
6025 kPa	890.33
6050 kPa	890.62
6075 kPa	890.95
6100 kPa	891.19
6125 kPa	891.52
6150 kPa	891.86
6175 kPa	892.08
6200 kPa	892.35
6225 kPa	892.62
6250 kPa	892.89
6275 kPa	893.14
6300 kPa	893.45
6325 kPa	893.63
6350 kPa	893.89
6375 kPa	894.18
6400 kPa	894.43
6425 kPa	894.67
6450 kPa	894.92
6475 kPa	895.17
6500 kPa	895.37
6525 kPa	895.62
6550 kPa	895.96
6575 kPa	896.11
6600 kPa	896.41
6625 kPa	896.62
6650 kPa	896.9
6675 kPa	897.02
6700 kPa	897.4
6725 kPa	897.56
6750 kPa	897.77
6775 kPa	898.06
6800 kPa	898.37
6825 kPa	898.6
6850 kPa	898.87
6875 kPa	899.09
6900 kPa	899.3
6925 kPa	899.5
6950 kPa	899.65
6975 kPa	899.77
7000 kPa	899.79
7025 kPa	899.99
7050 kPa	900.2
7075 kPa	900.45
7100 kPa	900.68
7125 kPa	900.92
7150 kPa	901.15
7175 kPa	901.36
7200 kPa	901.57
7225 kPa	901.84
7250 kPa	902.09
7275 kPa	902.25
7300 kPa	902.49
7325 kPa	902.74
7350 kPa	902.98
7375 kPa	903.16
7400 kPa	903.45
7425 kPa	903.64
7450 kPa	903.9
7475 kPa	904.05
7500 kPa	904.3
7525 kPa	904.46
7550 kPa	904.69
7575 kPa	904.94
7600 kPa	905.11
7625 kPa	905.36
7650 kPa	905.61
7675 kPa	905.8
7700 kPa	906.04
7725 kPa	906.26
7750 kPa	906.42
7775 kPa	906.67
7800 kPa	906.89
7825 kPa	907.08
7850 kPa	907.32
7875 kPa	907.57
7900 kPa	907.73
7925 kPa	908.06
7950 kPa	908.15
7975 kPa	908.39
8000 kPa	908.68
8025 kPa	908.88
8050 kPa	909.06
8075 kPa	909.27
8100 kPa	909.45
8125 kPa	909.7
8150 kPa	909.86
8175 kPa	910.09
8200 kPa	910.33
8225 kPa	910.56
8250 kPa	910.76
8275 kPa	910.96
8300 kPa	911.17
8325 kPa	911.44
8350 kPa	911.66
8375 kPa	911.83
8400 kPa	912.07
8425 kPa	912.24
8450 kPa	912.4
8475 kPa	912.59
8500 kPa	912.85
8525 kPa	913.06
8550 kPa	913.26
8575 kPa	913.46
8600 kPa	913.66
8625 kPa	913.87
8650 kPa	914.07
8675 kPa	914.29
8700 kPa	914.39
8725 kPa	914.62
8750 kPa	914.82
8775 kPa	915.04
8800 kPa	915.26
8825 kPa	915.43
8850 kPa	915.64
8875 kPa	915.83
8900 kPa	916
8925 kPa	916.16
8950 kPa	916.35
8975 kPa	916.53
9000 kPa	916.73
9025 kPa	916.93
9050 kPa	917.12
9075 kPa	917.31
9100 kPa	917.55
9125 kPa	917.75
9150 kPa	917.9
9175 kPa	918.13
9200 kPa	918.33
9225 kPa	918.6
9250 kPa	918.7
9275 kPa	918.95
9300 kPa	919.11
9325 kPa	919.31
9350 kPa	919.52
9375 kPa	919.69
9400 kPa	919.87
9425 kPa	920.09
9450 kPa	920.32
9475 kPa	920.47
9500 kPa	920.65
9525 kPa	920.85
9550 kPa	921.09
9575 kPa	921.21
9600 kPa	921.39
9625 kPa	921.56
9650 kPa	921.81
9675 kPa	921.97
9700 kPa	922.14
9725 kPa	922.38
9750 kPa	922.58
9775 kPa	922.71
9800 kPa	922.94
9825 kPa	923.15
9850 kPa	923.28
9875 kPa	923.48
9900 kPa	923.69
9925 kPa	923.77
9950 kPa	924
9975 kPa	924.18
10000 kPa	924.34
10025 kPa	924.53
10050 kPa	924.71
10075 kPa	924.83
10100 kPa	925.08
10125 kPa	925.24
10150 kPa	925.41
10175 kPa	925.57
10200 kPa	925.75
10225 kPa	926.06
10250 kPa	926.06
10275 kPa	926.3
10300 kPa	926.47
10325 kPa	926.69
10350 kPa	926.79
10375 kPa	927.06
10400 kPa	927.17
10425 kPa	927.34
